{"source": "paper PMC4200806", "about": "“A Combined Experimental and Computational Study of Vam3, a Derivative of Resveratrol, and Syk Interaction” (International Journal of Molecular Sciences, 2014)", "target": "Spleen tyrosine kinase (Syk) (Homo sapiens, UniProt P43405)", "test": "in vitro kinase assay with purified recombinant Syk (ADP-Glo, poly(Glu,Tyr) substrate); Ki from ATP-competition kinetics; IC50 […]", "assay_type": "biochemical", "data": [{"smiles": "Oc1ccc(/C=C/c2cc(O)cc3oc(-c4ccc(O)cc4)c(-c4cc(O)cc(O)c4)c23)cc1", "note": "[Vam3]", "values": [{"measurement": "Ki", "result": 61.1, "unit": "nM"}]}]}
